Measured values taken from ChEMBL document CHEMBL3217415, “(Pd/C-mediated)couplingiodocyclizationcoupling strategy in discovery of novel PDE4 inhibitors: a new synthesis of pyrazolopyrimidines” (Medchemcomm, 2012).
Each block holds one compound with its values, some of them ahead of it. Activity calls are given as the source filed them. No cut-off for these calls is given here.

Tests used:
[1] = tested on: RAW264.7; assay: Inhibition of LPS-induced TNFalpha production in mouse RAW264.7 cells pretreated for 30 mins before LPS challenge by ELISA assay; format: functional, cell-based
[2] = species: Danio rerio; assay: Toxicity in zebrafish embryo assessed as mortality at 10 to 20 uM after 1 to 24 hrs; format: organism-based; settings: in vivo
[3] = species: Danio rerio; assay: Toxicity in zebrafish embryo assessed as lordosis at 10 to 20 uM after 1 to 24 hrs; format: organism-based; settings: in vivo
[4] = species: Danio rerio; assay: Toxicity in zebrafish embryo assessed as effect on locomotory activity at 10 to 20 uM after 1 to 24 hrs; format: organism-based; settings: in vivo
[5] = species: Danio rerio; assay: Toxicity in zebrafish embryo assessed as cardiac arrhythmia at 10 to 20 uM after 24 hrs by compound microscopy; format: organism-based, Heart; settings: in vivo
[6] = species: Danio rerio; assay: Toxicity in zebrafish embryo assessed as increase in abnormal lesions at 10 to 20 uM after 24 hrs; format: organism-based; settings: in vivo
[7] = molecular target: T1, 3',5'-cyclic-AMP phosphodiesterase 4B (Homo sapiens, UniProt Q07343); assay: Inhibition of His-tagged recombinant human PDE4B expressed in baculovirus infected sf9 cells using cAMP as substrate at 30 uM preincubated for 15 mins followed by substrate addition measured after 1 hr by luminescence assay
[8] = species: Danio rerio; assay: Toxicity in zebrafish embryo assessed as mortality at 100 uM after 1 to 24 hrs; format: organism-based; settings: in vivo
[9] = species: Danio rerio; assay: Toxicity in zebrafish embryo assessed as effect on locomotory activity at 100 uM; format: organism-based; settings: in vivo
[10] = molecular target: T1, 3',5'-cyclic-AMP phosphodiesterase 4B; assay: Inhibition of His-tagged recombinant human PDE4B1 expressed in baculovirus infected sf9 cells using cAMP as substrate preincubated for 15 mins followed by substrate addition measured after 1 hr by luminescence assay
[11] = molecular target: T2, 3',5'-cyclic-AMP phosphodiesterase 4D (Homo sapiens, UniProt Q08499); assay: Inhibition of human PDE4D2 using cAMP substrate preincubated for 15 mins followed by substrate addition measured after 1 hr by luminescence assay
[12] = molecular target: 3',5'-cyclic-AMP phosphodiesterase 4A (Homo sapiens, UniProt P27815); assay: Inhibition of PDE4A4 (unknown origin) transfected in HEK293 cells assessed as forskolin-induced cAMP accumulation pretreated for 30 mins before forskolin challenge by luciferase reporter gene assay; format: cell-based
[13] = molecular target: T1, 3',5'-cyclic-AMP phosphodiesterase 4B; assay: Inhibition of PDE4B1 (unknown origin) transfected in HEK293 cells assessed as forskolin-induced cAMP accumulation pretreated for 30 mins before forskolin challenge by luciferase reporter gene assay; format: cell-based
[14] = molecular target: T2, 3',5'-cyclic-AMP phosphodiesterase 4D; assay: Inhibition of PDE4D3 (unknown origin) transfected in HEK293 cells assessed as forskolin-induced cAMP accumulation pretreated for 30 mins before forskolin challenge by luciferase reporter gene assay; format: cell-based
[15] = species: Danio rerio; assay: Toxicity in zebrafish embryo assessed as effect on locomotory activity at 10 uM after 6 hrs; format: organism-based; settings: in vivo
[16] = species: Danio rerio; assay: Toxicity in zebrafish embryo assessed as effect on locomotory activity at 20 uM after 24 hrs; format: organism-based; settings: in vivo

T1 sequence (Q07343 whole entry): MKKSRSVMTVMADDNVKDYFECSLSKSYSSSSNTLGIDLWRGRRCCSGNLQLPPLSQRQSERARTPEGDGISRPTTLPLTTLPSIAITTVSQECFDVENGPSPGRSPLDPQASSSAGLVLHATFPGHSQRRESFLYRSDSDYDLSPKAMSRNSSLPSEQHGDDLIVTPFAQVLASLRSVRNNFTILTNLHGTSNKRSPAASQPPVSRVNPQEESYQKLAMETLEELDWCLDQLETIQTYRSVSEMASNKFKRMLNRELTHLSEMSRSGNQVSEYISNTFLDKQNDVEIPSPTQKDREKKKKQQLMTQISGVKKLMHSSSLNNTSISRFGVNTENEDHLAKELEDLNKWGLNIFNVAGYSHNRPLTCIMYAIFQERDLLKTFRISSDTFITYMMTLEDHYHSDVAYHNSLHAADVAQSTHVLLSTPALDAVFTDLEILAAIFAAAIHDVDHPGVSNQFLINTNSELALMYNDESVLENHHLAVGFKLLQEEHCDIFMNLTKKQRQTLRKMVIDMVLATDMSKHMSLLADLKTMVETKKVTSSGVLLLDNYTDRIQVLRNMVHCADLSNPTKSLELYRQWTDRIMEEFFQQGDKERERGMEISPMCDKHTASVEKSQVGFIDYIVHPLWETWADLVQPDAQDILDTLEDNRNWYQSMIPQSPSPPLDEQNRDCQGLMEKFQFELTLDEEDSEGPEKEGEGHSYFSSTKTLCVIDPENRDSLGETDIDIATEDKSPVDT
T2 sequence (Q08499 whole entry): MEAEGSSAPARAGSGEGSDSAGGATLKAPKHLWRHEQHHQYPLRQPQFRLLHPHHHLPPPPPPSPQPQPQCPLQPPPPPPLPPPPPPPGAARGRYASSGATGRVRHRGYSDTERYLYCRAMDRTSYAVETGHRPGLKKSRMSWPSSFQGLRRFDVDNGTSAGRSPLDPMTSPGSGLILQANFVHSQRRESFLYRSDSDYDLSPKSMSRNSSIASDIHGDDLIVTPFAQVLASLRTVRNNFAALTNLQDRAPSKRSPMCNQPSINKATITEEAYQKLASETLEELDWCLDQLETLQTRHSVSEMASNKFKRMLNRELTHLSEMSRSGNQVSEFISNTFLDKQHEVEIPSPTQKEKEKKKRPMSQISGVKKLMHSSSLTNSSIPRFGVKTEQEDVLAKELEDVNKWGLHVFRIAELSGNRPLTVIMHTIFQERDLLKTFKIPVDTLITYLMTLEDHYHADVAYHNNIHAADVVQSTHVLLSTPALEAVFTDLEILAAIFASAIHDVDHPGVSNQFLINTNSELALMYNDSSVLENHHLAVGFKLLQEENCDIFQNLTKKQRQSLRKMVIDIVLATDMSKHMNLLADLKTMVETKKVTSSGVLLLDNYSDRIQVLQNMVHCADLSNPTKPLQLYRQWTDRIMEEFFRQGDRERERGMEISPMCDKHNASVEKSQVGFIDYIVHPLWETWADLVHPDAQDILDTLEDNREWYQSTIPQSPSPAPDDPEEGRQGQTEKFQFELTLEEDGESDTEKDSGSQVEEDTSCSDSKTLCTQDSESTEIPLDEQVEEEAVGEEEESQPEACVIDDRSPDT
3',5'-cyclic-AMP phosphodiesterase 4A, sequence (P27815 whole entry): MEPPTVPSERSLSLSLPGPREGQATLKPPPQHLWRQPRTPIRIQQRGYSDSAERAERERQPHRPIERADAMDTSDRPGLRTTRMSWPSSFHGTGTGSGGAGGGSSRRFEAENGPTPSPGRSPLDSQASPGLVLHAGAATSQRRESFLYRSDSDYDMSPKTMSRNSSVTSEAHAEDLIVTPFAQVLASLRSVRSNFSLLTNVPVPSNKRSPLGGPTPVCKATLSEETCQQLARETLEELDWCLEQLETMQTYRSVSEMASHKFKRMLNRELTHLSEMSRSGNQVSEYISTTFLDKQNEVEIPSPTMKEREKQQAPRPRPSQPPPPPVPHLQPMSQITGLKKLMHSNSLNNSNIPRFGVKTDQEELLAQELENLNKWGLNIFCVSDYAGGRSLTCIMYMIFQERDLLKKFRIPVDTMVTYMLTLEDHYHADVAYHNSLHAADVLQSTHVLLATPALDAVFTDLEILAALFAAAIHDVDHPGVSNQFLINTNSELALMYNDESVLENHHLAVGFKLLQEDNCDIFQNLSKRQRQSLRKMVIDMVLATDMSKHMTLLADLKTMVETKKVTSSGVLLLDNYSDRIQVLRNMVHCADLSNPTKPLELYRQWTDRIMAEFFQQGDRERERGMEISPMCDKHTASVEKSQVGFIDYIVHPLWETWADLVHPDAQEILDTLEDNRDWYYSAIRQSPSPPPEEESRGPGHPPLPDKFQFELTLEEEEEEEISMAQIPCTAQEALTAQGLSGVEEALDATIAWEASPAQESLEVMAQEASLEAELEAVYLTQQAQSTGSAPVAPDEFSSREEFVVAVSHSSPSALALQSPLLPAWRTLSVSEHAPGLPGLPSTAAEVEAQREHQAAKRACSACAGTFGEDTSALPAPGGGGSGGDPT

Structure (SMILES): COc1ccc(C2CNC(=O)C2)cc1OC1CCCC1 (stereo not drawn) [ROLIPRAM]
IC50 [1]: 0.19 µM | Activity [2]: Toxic | Activity [3]: Toxic | Activity [4]: Toxic | Activity [5]: Non-toxic | Activity [6]: Toxic

inhibition [7]: 50%
Structure (SMILES): CCCCCC#Cc1c(CCCCCC)oc(=O)c2c1nn1c(-c3ccccc3)ccnc21

inhibition [7]: 50%
Structure (SMILES): CCCCCC#Cc1c(-c2ccccc2)oc(=O)c2c1nn1c(-c3ccccc3)ccnc21

inhibition [7]: 74%
Structure (SMILES): O=c1oc(-c2ccccc2)c(-c2cccc([N+](=O)[O-])c2)c2nn3c(-c4ccccc4)ccnc3c12

inhibition [7]: inactive
Structure (SMILES): CCCCCCc1oc(=O)c2c(nn3c(-c4ccccc4)ccnc23)c1/C=C/C(=O)OC(C)(C)C

inhibition [7]: 66%
Structure (SMILES): O=c1oc(-c2ccccc2)c(-c2ccc(F)cc2)c2nn3c(-c4ccccc4)ccnc3c12

Structure (SMILES): CC(C)(C)c1ccc(C(O)CCCN2CCC(C(O)(c3ccccc3)c3ccccc3)CC2)cc1 (stereo not drawn) [TERFENADINE]
Activity [8]: Toxic | Activity [9]: Toxic

inhibition [7]: 85%
Structure (SMILES): CCCCCCc1oc(=O)c2c(nn3c(-c4ccccc4)ccnc23)c1-c1cccc(C(N)=O)c1

inhibition [7]: 74%
Structure (SMILES): O=c1oc(-c2ccccc2)c(-c2cnc3ccccc3c2)c2nn3c(-c4ccccc4)ccnc3c12

Structure (SMILES): NC(=O)c1cccc(-c2c(-c3ccccc3)oc(=O)c3c2nn2c(-c4ccccc4)ccnc32)c1
inhibition [7]: 93% | IC50 [10]: 1.33 µM | IC50 [11]: 2.84 µM | EC50 [12]: 11.7 µM | EC50 [13]: 6.32 µM | EC50 [14]: 9.62 µM | IC50 [1]: 0.45 µM | Activity [2]: Non-toxic | Activity [15]: Toxic | Activity [5]: Non-toxic | Activity [6]: Non-toxic | Activity [16]: Non-toxic

inhibition [7]: inactive
Structure (SMILES): CCCCCCc1oc(=O)c2c(nn3c(-c4ccccc4)ccnc23)c1/C=C/C(=O)OCC
